Experimental data from a melting point compilation (Tetko et al.; mined from patent text by program, amines drawn as free bases though some values may be those of a salt).

Structure (SMILES)	melting point
CCCCc1nc(C(=O)O)c(C(=O)O)n1Cc1ccc(I)cc1	98 to 99 °C
CCC(CC)Nc1c([N+](=O)[O-])cc(C)c(COC(=O)CCl)c1[N+](=O)[O-]	45 to 48 °C
CC(C)c1cccc(OCc2cc(Br)ccc2C(=O)O)c1	103 to 122 °C
CCCCCCCCCCCCSC1c2cccc(O)c2C(=O)c2c(O)cccc21	76 °C
CC1(C)CCc2cccc3c(-c4ccc(F)cc4)c(C=CC4CC(O)CC(=O)O4)n1c23 (configuration not stated)	166 °C
NC(=O)c1ccc2c(c1)C(=O)c1cc(F)ccc1C2=O	322 to 323 °C
OCc1cc2c(Cl)ccc(Br)c2s1	141 to 143 °C
CCCCc1nn(-c2cc(NC(=O)CCC)ccc2Cl)c(=O)n1Cc1ccc(-c2ccccc2S(=O)(=O)NC(=O)c2ccccc2Cl)cc1	> 130 °C
CC(=O)OC12Oc3cc(C(C)C)ccc3C1(OC(C)=O)C(=O)c1c(NS(C)(=O)=O)cccc12 (configuration not stated)	96 to 100 °C
CCOCCOc1ccc(-c2ccc3c(c2)C=C(C(=O)OC)CCN3C=O)cc1	138 to 142 °C
COc1ccc(C(=O)C(=O)c2ccccn2)cc1	97 to 98 °C
Cc1nc2c(N)nc3ccccc3c2n1CCCCNC(=O)C(C)C	160 to 161 °C
Nc1ccc(Oc2ncc(C(F)(F)F)cc2Cl)cc1	85 to 87 °C
COc1ccc(C(=O)c2cc(F)ccc2F)c(O)c1	109 °C
CCOc1ccc2c(-c3ccccc3)c([N+](=O)[O-])oc2c1	109 to 111 °C
OC1(c2ccccc2)Cc2ccccc2C1	54 °C
COc1ccc(C2(C#Cc3cccc(-c4nnc(C)o4)c3)CCCC(=O)C2)cc1OC1CCCC1 (configuration not stated)	117 to 119 °C
O=C(CN1C(=O)C(NC(=O)n2ccnc2)N=C(c2ccccc2F)c2ccccc21)N1CC2CCC(CC2)C1 (racemic)	235 to 237 °C
Cn1c(C(F)(F)F)ccc(-c2c(F)cc(Cl)c3occc23)c1=O	178 to 179 °C

Structure (SMILES)	melting point
CC(C)c1ccc2c(c1)c(Sc1ccccc1)c(CCC(=O)O)n2Cc1ccc(Cl)cc1	149 to 150 °C
CC(C)Oc1cc(/C=C/C(=O)O)n(Cc2ccc(Cl)cc2Cl)n1	170 to 171 °C
CSCC(=O)c1ccc(O)c(O)c1	107 °C
CCn1nc(C)c2nc(C)nc(N3CC3)c21	66 to 69 °C
CCCCn1c(CCC)ccc1Cc1cccc(NC(N)=O)c1	85 to 89 °C
Cc1nc(OCCN2CCOCC2)c([N+](=O)[O-])c(N2CCc3ccccc3CC2)n1	143 to 145 °C
CC(C)(C)OCc1cc(C(C)(C)C)cc(COC(C)(C)C)c1SSc1c(COC(C)(C)C)cc(C(C)(C)C)cc1COC(C)(C)C	120 to 121 °C
Nc1cc(=O)n(Cc2cccc(F)c2)[nH]1	129 °C
COc1cc(OC)cc(Sc2ccccc2C(=O)O)c1	182 °C
Cc1sc2nc(SCCCN3CCN(c4ccc5ccccc5n4)CC3)[nH]c(=O)c2c1C	225 to 226 °C
OCCc1ccc(-c2ccccc2)s1	74 °C
Cc1cccc(C2CCN(C(=O)Oc3ccccc3)CC2)c1	127 to 130 °C
CCOc1nn(Cc2ccnc(OCc3nc(-c4ccco4)oc3C)c2)cc1CCC(=O)O	138 to 139 °C
Cc1cc(Cc2cnc(N[N+](=O)[O-])[nH]c2=O)cnc1C	212 to 213 °C
CSc1ccc(NC(=O)N(O)C2CCCCC2)cc1	151 to 153 °C
O=C(Nc1cccc([N+](=O)[O-])c1)c1cccnc1Oc1cccc(C(F)(F)F)c1	90 to 95 °C
O=c1cc(-c2ccncn2)nc2n1CCC1(CCNC1)N2 (configuration not stated)	226 to 228 °C
CC1(C)CC(N)(C(N)=O)CC(C)(C)N1	142 to 144 °C
C=CCn1cnc2c1c(=O)n(CCCCC(C)O)c(=O)n2C (configuration not stated)	71 °C

Structure (SMILES)	melting point
Cc1c(-c2ccccc2)oc2c(NC(=O)NCCCl)cccc2c1=O	213 to 214 °C
O=C(Nc1ccccn1)c1nnc2ccccc2c1O	341 to 343 °C
COCc1cccc(CCC(O)c2ccccc2)c1NC(=O)CC1c2ccccc2Oc2ccccc21 (configuration not stated)	144 to 146 °C
Cc1ccc2c(c1)c1cc(-c3ccc(Cl)cc3Cl)c(=O)n(C)c1n2CCOC1CCCCO1 (configuration not stated)	161 °C
CCCN(CCCNc1ncc(Cc2ccc(C)nc2)c(=O)[nH]1)c1ccccn1	83 to 90 °C
CN(C(=O)c1ccc2nonc2c1)C1CCN(S(C)(=O)=O)CC1	177 to 179 °C
Cn1c(C(F)(F)F)cc(=O)n(-c2cc(OCc3cccc(F)c3)c(Cl)cc2F)c1=O	135 to 137 °C
NC(=O)c1c(I)c(C(=O)N(CC(O)CO)CC(O)CO)c(I)c(N2CCCCC2=O)c1I (configuration not stated)	214 to 219 °C
CNc1nc(-c2cccc(N)c2)c2cc(OC)c(OC)cc2n1	197 to 199 °C
O=C(O)CCC(=O)N1CCN(c2ccccn2)CC1	125 to 127 °C
O=C1NCCc2[nH]c3cc(F)ccc3c21	213 to 215 °C
CS(=O)(=O)c1ccc(C(=O)O)c(Cl)c1-c1nccs1	288 to 290 °C
O=C(NC(=O)c1c(F)cccc1F)Nc1ccc(Oc2cccc3ccccc23)nc1	224 °C
COCC(Oc1ccc(-n2nnc3cc(C(F)(F)F)ccc32)cc1)C(=O)O (configuration not stated)	139 to 142 °C
CCOC(=O)C1CNc2cc(-c3ccccc3)ccc2O1 (configuration not stated)	141 to 145 °C
CON(C)C(=O)CCCCCCNC(=O)c1cn2c3c(cccc13)CCC2	61 to 62 °C
CCOP(=O)(CC(=O)Nc1cc2c(Nc3ccc(F)c(Cl)c3)ncnc2cc1OCC1CC1)OCC	185 to 187 °C
CS(=O)(=O)OCC[C@H](CCCCC(=O)O)OS(C)(=O)=O	54 to 55 °C

Other lines, results leading:

melting point	Structure (SMILES)
140 to 145 °C	CCS(=O)c1cc2c(cc1OC)CCn1c3c(c(Br)c1-2)CCCCN(C(C)(C)C)C3=O (configuration not stated)
210 °C	CCn1c(=O)ccn(-c2ccc(N3CCN(c4ccc(OC)cc4)CC3)cc2)c1=O
103 to 105 °C	O=C(COc1cccnc1)NCCCCC1CCN(C(c2ccccc2)c2ccccc2)CC1
198 to 202 °C	CC(=O)c1nc(-c2ccc(O)cc2)n(C)c1C
79 to 82 °C	CS(=O)(=O)c1ccc(C(CC2CCCC2)C(=O)Nc2cnc(CC#N)cn2)cc1Cl (configuration not stated)
102 to 103 °C	Cc1cccc(-c2nccc(NN)n2)c1
257 to 259 °C	CC(C)(C)C(=O)c1c[nH]c2ncc(N3C(=O)CCc4ccccc43)nc12
187 to 189 °C	COc1ccc(C(=O)CCC(=O)O)cc1Cl
188 to 190 °C	CC1CC(=O)NN=C1c1ccc2c(c1)OCC(=O)N2C (configuration not stated)
203 to 204 °C	CC(C(=O)O)c1ccc2c(c1)Cc1cccnc1S2 (configuration not stated)
181 °C	CCOC(=O)OCC1OC(n2cc(C=CBr)c(=O)[nH]c2=O)CC1Cl (configuration not stated)
122 to 124 °C	CC(C)C1=C(c2ccc(F)cc2)C(=O)C(C(C)C)=C(C(C)C)C1=O
69 to 72 °C	CCCC(NS(C)(=O)=O)P(=O)(OCCCl)OCCCl (configuration not stated)
144 to 147 °C	O=c1c2cnc(-c3ccccc3)nc2sn1CCc1ccccc1
187 to 188 °C	OCC1(CO)C=CC(c2ccccc2)=CC1
145 °C	CCCCc1cc(OCc2ccc(-c3ccccc3C(=O)O)cc2)c2ccccc2n1
84.5 to 87 °C	COC(=O)COC(=O)C(C)c1ccc2cc(O)ccc2c1 (configuration not stated)
167 to 168 °C	NS(=O)(=O)c1cc(Cc2ccccc2)c(O)c2ccccc12
67 to 68 °C	c1ccc(N=c2sc3ccccc3s2)cc1
160 °C	CCCn1cncc1-c1ccc(O)cc1
98 to 99 °C	CCOC(Nc1ccccc1)(OCC)c1ccnc(C(=O)c2ccc(Cl)cc2)c1
128 to 131 °C	COC(=O)[C@H](Cc1c[nH]cn1)NC(=O)[C@H](Cc1ccccc1)NC(=O)[C@H](Cc1ccccc1)NC(=O)C(C)(C)C
90 °C	Cc1cc(Cl)ccc1-c1cc(F)cc2c1NC(CN)CO2 (configuration not stated)

melting point	Structure (SMILES)
202 °C	CC(=O)NCCCc1c(N)ccc2c1C(=O)c1ccccc1C2=O
278 to 280 °C	COc1cc2nc(S)[nH]c2cc1OC
198 to 200 °C	CCCc1nc2c(N)nc3cc(Oc4cccc([N+](=O)[O-])c4)ccc3c2n1CC(C)C
112 °C	CCc1noc(C(=NOC)c2ccccc2COc2cc(C)ccc2C)n1
148 to 150 °C	Nc1ccc(N2CC(O)C2)nc1
148 to 150 °C	COCc1cc2c(C(=O)Nc3ccnn3C)ccc(OC)c2o1
107 to 108 °C	CCCC[C@H](NC(=O)[C@H](CC(C)C)NC(=O)c1cc(F)c(F)c(F)c1F)C(=O)CSCc1ccco1
151 to 153 °C	CC(=O)Nc1cc(O)ccc1Oc1ccccc1
124 to 125 °C	O=C(O)CCCCC[C@@H]1C[C@@H](NS(=O)(=O)c2ccc(Cl)cc2)CN1S(=O)(=O)c1ccc(Cl)cc1
252 °C	CCOC(=O)c1c(N2CCN(C(=O)c3cccs3)CC2)c2sccc2[nH]c1=O
150 to 153 °C	COc1ccc(CN(C)C(=O)c2c(-c3ccncc3)c(-c3ccc(F)cc3)nn2C)cc1
92 to 94 °C	Cc1ccc(C2c3c(C)c(NCc4ccc(F)cc4)c(C)c(C)c3OC2(C)C)cc1 (configuration not stated)
185 to 188 °C	CS(=O)(=O)OC[C@@H]1NC(=O)[C@@H]1n1c(-c2ccccc2)c(-c2ccccc2)oc1=O (relative stereo)
198 to 201 °C	CCCN(CCC)CCc1ccc(OC)c2[nH]nc(O)c12
169 to 170 °C	COc1cnc(Cl)c(C(=O)O)c1
150 to 152 °C	Nc1cc(C(=O)NCC(=O)O)ccc1F
93 °C	CCCc1c(OCCOc2ccc(C(=O)NCCCCc3cccnc3)cc2)ccc(C(C)=O)c1O
95 to 96.5 °C	COC(=O)c1cccnc1C(=O)c1ccc(F)cc1
174 to 175 °C	Cn1c(=O)c2cnccc2n(C)c1=O
112 to 114 °C	Cc1cnc(CCC(C)C#N)c(N)c1 (configuration not stated)
90 to 92 °C	CCC(C(=O)OC1C=CC=CO1)C(=O)OC1C=CC=CO1 (configuration not stated)
135 °C	Cc1cc2c(c(C)c1O)CCC(C)(C#N)O2 (configuration not stated)
200 to 202 °C	N#Cc1nc2c(nc1N)CCCC2
